US10280170B2, “Substituted 4,5,6,7-tetrahydro-pyrazolo[1,5-a]pyrazine derivatives and 5,6,7,8-tetrahydro-4H-pyrazolo[1,5-a][1,4]diazepine derivatives as Ros1 inhibitors” (Janssen Pharmaceutica NV, priority 2014, dated 2019)
Like-named read-outs stand apart in the source and are kept apart here.

Columns and labels:
[1] = system: Ba/F3 cells containing Ros1 wild-type protein + IL-3; assay: Ba/F3-Ros1 cell proliferation counter-screen, wild-type protein in the presence of 10 ng/ml murine IL-3; assay type: cell-based; conditions: Mus musculus, BaF3, 24 h, read-out: BaF3-ROS1 + IL3 pIC50 (converted)
In short: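 Ba/F3 cells expressing wild-type Ros1 were grown with 10 ng/ml murine IL-3 and test compound in RPMI-1640 with 10% FBS and 2 mM L-glutamine for 24 h at 37 °C, 5% CO2. Viability was then read as Alamar Blue (resazurin) fluorescence (ex 540/em 590 nm) after 4 h further incubation.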

[2] = system: HCC78 non-small cell lung cancer cells; assay: HCC78 cell proliferation assay; assay type: cell-based; conditions: Homo sapiens, HCC78, 96 h, read-out: HCC-78 PROL pEC50 (converted)
In short: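 HCC78 NSCLC cells (~1000/well) in RPMI-1640 with 10% FBS were treated 24 h after seeding and exposed to compound for 4 days at 37 °C. Viability was read by MTT, with absorbance at 538 nm after DMSO/glycine solubilization.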

Ros1 enzyme = target: T1, Ros1 enzyme (Homo sapiens, UniProt P08922); assay: Ros1 enzymatic assay; assay type: biochemical; conditions: Ros1 enzymatic assay; read-out: ROS1 pIC50 (converted)
T1 construct: 0.5 μg/ml Ros1 enzyme
T1 sequence (P08922 28-2347): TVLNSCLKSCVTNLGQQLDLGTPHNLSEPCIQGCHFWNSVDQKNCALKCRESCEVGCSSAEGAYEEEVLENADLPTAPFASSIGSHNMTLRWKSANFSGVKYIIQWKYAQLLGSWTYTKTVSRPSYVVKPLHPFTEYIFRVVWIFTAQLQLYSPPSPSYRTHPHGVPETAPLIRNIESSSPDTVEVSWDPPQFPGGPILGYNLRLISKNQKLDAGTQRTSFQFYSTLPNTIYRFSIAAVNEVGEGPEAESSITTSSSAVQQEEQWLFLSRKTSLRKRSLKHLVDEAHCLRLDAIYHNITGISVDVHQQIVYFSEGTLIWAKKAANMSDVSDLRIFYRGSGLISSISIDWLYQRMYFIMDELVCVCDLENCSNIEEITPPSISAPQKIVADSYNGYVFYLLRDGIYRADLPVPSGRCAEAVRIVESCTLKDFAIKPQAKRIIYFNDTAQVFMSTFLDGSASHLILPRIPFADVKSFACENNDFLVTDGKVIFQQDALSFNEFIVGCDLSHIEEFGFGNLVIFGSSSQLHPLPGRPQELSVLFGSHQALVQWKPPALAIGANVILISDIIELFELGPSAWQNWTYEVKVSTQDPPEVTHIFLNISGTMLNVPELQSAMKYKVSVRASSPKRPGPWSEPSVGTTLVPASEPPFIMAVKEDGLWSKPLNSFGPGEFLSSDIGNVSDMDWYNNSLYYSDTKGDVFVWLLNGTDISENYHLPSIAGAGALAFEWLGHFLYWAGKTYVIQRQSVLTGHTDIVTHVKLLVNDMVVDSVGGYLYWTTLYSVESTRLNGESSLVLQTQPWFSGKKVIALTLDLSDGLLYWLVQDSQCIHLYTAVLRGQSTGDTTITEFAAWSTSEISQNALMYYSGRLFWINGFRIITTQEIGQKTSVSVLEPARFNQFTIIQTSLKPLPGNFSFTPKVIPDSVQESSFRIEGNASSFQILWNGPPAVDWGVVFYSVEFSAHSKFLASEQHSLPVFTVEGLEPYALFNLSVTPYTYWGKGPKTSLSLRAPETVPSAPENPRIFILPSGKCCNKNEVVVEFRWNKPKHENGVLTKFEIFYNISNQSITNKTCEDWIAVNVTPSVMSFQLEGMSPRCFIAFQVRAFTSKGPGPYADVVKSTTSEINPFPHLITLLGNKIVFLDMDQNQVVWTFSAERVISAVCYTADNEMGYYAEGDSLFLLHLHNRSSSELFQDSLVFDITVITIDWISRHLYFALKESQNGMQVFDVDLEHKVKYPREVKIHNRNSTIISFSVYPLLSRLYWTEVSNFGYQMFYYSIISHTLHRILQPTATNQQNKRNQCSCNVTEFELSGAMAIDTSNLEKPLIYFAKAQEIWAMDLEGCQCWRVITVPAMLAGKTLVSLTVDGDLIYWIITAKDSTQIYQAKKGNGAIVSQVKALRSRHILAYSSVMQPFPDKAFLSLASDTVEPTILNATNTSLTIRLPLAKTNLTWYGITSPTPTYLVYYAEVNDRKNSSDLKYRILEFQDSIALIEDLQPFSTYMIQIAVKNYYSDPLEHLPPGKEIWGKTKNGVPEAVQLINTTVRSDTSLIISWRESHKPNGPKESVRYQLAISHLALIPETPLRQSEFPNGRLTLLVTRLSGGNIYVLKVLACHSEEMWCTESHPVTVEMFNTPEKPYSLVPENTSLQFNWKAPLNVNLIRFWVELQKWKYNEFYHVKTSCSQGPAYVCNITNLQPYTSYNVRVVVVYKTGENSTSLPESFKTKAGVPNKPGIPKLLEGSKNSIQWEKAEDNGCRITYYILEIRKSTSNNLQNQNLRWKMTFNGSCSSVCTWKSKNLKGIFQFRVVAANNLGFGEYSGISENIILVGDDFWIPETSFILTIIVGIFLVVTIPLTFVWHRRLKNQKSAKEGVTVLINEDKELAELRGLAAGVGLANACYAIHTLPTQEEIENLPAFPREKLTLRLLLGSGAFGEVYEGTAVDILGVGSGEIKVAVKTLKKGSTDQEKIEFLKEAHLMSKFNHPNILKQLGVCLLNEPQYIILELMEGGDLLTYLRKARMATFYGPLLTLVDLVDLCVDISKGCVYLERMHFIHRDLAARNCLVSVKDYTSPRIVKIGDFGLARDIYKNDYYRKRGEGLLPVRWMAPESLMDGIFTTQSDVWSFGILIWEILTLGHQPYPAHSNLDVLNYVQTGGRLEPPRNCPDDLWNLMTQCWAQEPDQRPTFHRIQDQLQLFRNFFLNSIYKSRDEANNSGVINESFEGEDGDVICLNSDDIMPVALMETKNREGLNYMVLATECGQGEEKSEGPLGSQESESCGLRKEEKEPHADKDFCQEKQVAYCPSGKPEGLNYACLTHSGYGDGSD
In short: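 Ros1 (0.5 μg/ml in enzyme mix) was combined with a substrate mix of biotinylated IRS-Tide (6 μg/ml) and 20 μM ATP spiked with 33P-ATP in 50 mM Tris-HCl pH7.5, 10 mM MgCl2, 1 mM EGTA, 0.01% Tween-20. Reaction ran 120 min at room temperature before EDTA stop.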

[3] = system: Ros pY2274 in HCC78 cells; assay: pROS1 immunofluorescence assay in HCC78 cells; assay type: cell-based; conditions: Homo sapiens, read-out: HCC78-pRos1 pIC50 (converted)
Experimental: pROS1 Immunofluorescence Assay in HCC78 Cells
Approximately 20000 HCC78 non-small cell lung cancer cells in 180 μl of cell culture medium (RPMI-1640, 10% FBS, 2 mM L-Glutamine, 10 mM Hepes, 1 mM sodium pyruvate, 4.5 g/L glucose, 1.5 g/L sodium bicarbonate, 25 μg/ml Gentamycin) were seeded in each well of a 96-well polystyrene, poly-D-lysine coated plate and incubated at 37° C. and 5% CO2. After 24 hours, compounds were diluted in cell culture medium from which 20 μl was added to the wells containing cells and incubated for 4 hours at 37° C. and 5% CO2. The medium was removed and the cells were fixed by adding 100 μl of 5% formaldehyde in TBS (tris-buffered saline) (50 mM Tris.HCl, pH 7.4, 150 mM NaCl) and incubating for 15 minutes at room temperature. The formaldehyde was removed and replaced with methanol for 10 minutes at room temperature, after which the cells were washed 3 times with TBS containing 1% Triton X-100 and incubated in Odyssee (Li-Cor) blocking buffer for 1 hour at room temperature. The cells were then incubated with the primary rabbit antibody directed against Ros pY2274 (cst-3078) diluted 1/200 in blocking buffer for 24 hours at room temperature. The cells were washed three times with TBS containing 0.1% Triton X-100 and incubated with a secondary anti-rabbit antibody conjugated to the fluorescent dye Alexafluor 680 in blocking buffer for 1 hour at room temperature. The cells were washed three times with TBS containing 0.1% Triton X-100 and left to dry before measuring RFUs (Relative Fluorescence Units) at 700 nm using a fluorescence imager.
The same experiment was performed using total Ros1 antibody (sc-6347) diluted 1/1000 instead of Ros1 pY2274 antibody and an anti-goat antibody conjugated to IRDye800cw as a secondary antibody. RFUs were measured at […]. The signals from total Ros1 detection were used to normalize the Ros1 pY2274 values.

[4] = target: T2, Ba/F3 cells containing Ros1 wild-type protein (Homo sapiens, UniProt P08922, cells depend on it, form not given); assay: Ba/F3-Ros1 cell proliferation assay, wild-type Ros1; assay type: cell-based, murine; conditions: without IL-3
T2 construct: The background only speaks of 'a number of different unrelated proteins' and names SLC34A2-ROS1 for HCC78 cells
T2 sequence (P08922 whole entry, stated change not applied): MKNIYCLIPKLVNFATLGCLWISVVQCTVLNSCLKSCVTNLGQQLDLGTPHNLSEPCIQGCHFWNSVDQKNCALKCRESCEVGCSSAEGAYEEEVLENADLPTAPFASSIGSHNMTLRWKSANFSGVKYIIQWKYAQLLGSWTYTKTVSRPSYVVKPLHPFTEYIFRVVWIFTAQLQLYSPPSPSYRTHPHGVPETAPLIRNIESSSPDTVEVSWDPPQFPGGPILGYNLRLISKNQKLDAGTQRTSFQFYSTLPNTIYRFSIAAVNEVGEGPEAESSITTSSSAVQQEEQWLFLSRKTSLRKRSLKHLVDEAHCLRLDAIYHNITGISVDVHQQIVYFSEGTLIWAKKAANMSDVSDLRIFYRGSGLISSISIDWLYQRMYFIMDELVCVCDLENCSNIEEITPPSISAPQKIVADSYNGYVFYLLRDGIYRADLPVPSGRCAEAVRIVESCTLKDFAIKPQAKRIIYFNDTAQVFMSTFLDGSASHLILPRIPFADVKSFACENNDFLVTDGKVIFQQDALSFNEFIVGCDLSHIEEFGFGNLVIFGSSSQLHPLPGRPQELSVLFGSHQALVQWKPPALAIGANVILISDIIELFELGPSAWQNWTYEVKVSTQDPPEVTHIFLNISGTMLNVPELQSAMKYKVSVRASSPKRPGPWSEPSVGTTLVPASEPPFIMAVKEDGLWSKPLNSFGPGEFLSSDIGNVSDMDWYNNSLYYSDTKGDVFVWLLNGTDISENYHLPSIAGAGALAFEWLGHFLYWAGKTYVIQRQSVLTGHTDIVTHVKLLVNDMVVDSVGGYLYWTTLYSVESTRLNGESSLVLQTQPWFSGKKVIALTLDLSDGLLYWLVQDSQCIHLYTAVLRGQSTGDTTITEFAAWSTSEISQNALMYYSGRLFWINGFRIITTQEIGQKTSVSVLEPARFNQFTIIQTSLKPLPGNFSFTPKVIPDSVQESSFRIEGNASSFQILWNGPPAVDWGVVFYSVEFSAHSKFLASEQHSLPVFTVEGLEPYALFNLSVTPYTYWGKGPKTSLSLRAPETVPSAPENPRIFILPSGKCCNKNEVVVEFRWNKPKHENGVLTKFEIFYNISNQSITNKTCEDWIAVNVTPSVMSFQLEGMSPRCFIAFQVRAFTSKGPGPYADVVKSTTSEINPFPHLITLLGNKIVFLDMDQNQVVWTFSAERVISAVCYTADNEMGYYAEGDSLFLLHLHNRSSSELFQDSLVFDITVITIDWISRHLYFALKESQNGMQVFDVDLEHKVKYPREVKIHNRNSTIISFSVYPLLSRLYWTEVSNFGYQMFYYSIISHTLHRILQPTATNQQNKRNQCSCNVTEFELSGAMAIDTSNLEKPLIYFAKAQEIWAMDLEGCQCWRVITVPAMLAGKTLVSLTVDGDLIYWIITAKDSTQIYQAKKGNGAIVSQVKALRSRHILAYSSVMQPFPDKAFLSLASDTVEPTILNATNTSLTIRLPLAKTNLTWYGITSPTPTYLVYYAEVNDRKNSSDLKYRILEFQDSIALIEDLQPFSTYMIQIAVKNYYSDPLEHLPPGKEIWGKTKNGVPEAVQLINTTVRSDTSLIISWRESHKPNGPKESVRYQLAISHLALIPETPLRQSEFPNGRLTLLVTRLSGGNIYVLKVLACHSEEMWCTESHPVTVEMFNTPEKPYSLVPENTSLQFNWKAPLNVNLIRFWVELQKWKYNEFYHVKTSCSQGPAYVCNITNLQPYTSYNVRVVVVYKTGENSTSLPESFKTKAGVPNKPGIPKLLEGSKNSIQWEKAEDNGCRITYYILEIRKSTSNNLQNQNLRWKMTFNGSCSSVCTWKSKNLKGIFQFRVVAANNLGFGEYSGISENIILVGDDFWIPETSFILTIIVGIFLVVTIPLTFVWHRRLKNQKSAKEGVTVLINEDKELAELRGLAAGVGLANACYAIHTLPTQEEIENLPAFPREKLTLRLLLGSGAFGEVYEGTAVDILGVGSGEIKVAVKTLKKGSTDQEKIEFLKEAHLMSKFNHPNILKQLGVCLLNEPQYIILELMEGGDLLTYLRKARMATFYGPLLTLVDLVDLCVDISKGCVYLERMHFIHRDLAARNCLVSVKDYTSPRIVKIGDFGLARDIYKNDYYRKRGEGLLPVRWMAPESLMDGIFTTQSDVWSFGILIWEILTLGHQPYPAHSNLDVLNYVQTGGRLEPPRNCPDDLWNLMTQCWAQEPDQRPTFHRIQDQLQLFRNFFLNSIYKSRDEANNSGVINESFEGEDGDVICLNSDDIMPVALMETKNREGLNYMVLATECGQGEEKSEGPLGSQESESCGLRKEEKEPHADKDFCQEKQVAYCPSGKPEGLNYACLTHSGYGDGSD
In short: (§1)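 Ba/F3 cells expressing wild-type, L2026M or G2032R Ros1 (20000 per well) were incubated with DMSO-solubilized compounds in phenol red-free RPMI-1640 with 10% FBS and 2 mM L-glutamine at 37 °C, 5% CO2 for 24 hours. Viability was then read by Alamar Blue fluorescence (ex 540/em 590 nm) after 4 h.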

[5] = target: Ba/F3 cells containing Ros1 with a mutation at the gatekeeper residue (L2026M) (Homo sapiens, UniProt P08922, L2026M, cells depend on it, form not given); assay: Ba/F3-Ros1 cell proliferation assay, L2026M gatekeeper mutant; assay type: cell-based, murine; conditions: without IL-3
Ba/F3 cells containing Ros1 with a mutation at the gatekeeper residue (L2026M), sequence (P08922 whole entry L2026M, form open): as the sequence (P08922 whole entry, stated change not applied) above, with L2026M counted along it
In short: as §1

[6] = counter-screen, wild-type, 10 ng/ml murine IL-3
[7] = HCC78 cells, 4 hours, Ros pY2274 normalized to total Ros1

EC50 ([2]; HCC78 cells, 4 days, MTT) [nM]	Structure (SMILES)	CC50 [1, 6] [nM]	IC50 (Ros1 enzyme) [nM]	melting point [°C]	IC50 [3, 7] [nM]	BaF3-ROS1-IL3 pIC50 [4]	CC50 [1] [nM]	EC50 [2] [nM]	IC50 ([3]; HCC78, 4 h) [nM]	Ba/F3 Ros1 L2026M (-IL-3) pIC50 [5]
1580	CC(C)c1ccc(COc2ccc(-c3c(-c4ccncc4)nn4c3CNCC4)cc2)cc1 [Compound 173]	> 10000	398	194	316	6.1				
	O=C1NCCn2nc(-c3ccncc3)c(-c3ccc(OCc4ccc(C5CC5)nc4)cc3)c21 [Compound 3]		79.4	276		7.3	> 10000	794	79.4	7.0
794	CC(C)c1ccc(COc2ccc(-c3c(-c4ccncc4)nn4c3CN(C)CC4)cc2)cc1 [Compound 185]	> 10000	126	120	158	6.3				
	COc1cc(-c2c(-c3ccnc(N)c3)nn3c2C(=O)NCC3)ccc1OCc1ccc(C(C)C)cc1 [Compound 149]		7.94	179		7.6	> 10000	< 31.6	12.6	7.4
2000	CC(C)(O)c1ccc(COc2ccc(-c3c(-c4ccncc4)nn4c3C(=O)NCC4)cc2)cc1 [Compound 9]	> 10000	631	290	2510	6.4				6.2
	CC1Cn2nc(-c3ccncc3)c(-c3ccc(OCc4ccc(C5CC5)cc4)cc3)c2C(=O)N1 (stereo not shown) [Compound 189]		31.6	249		7.1	> 10000	200	39.8	
	CC(C)c1ccc(COc2ccc(-c3c(-c4ccncc4)nn4c3C(=O)NCC4)cc2C#N)cc1 [Compound 26]		398	235		6.6	> 10000	794	631	6.5
	O=C1NCCn2nc(-c3ccncc3)c(-c3ccc(OCC#Cc4ccccc4)cc3)c21 [Compound 142]		126	245		6.9	> 10000	398	126	6.4
	COc1cc(-c2c(-c3ccncc3)nn3c2C(=O)NCC3)cnc1OCc1ccc(C(C)C)cc1 [Compound 8]		6.31	135		7.9	> 10000	39.8	25.1	7.8
	CC(C)c1ncc(COc2ccc(-c3c(-c4ccncc4)nn4c3C(=O)NCC4)cc2)cn1 [Compound 103]		1260	235		6.0	> 10000	2000	3980	
	CC(C)c1ccc(COc2ccc(-c3c(-c4ccncc4F)nn4c3C(=O)NCC4)cc2)cc1 [Compound 151]		31.6			7.4	> 10000	63.1	20	7.1
	COc1cc(-c2c(-c3ccncc3)nn3c2C(=O)N(C)CC3)ccc1OCc1ccc(C(C)C)cc1 [Compound 33]		10	151		7.7	> 10000	< 31.6	12.6	7.4
1260	CC(C)c1ccc(COc2ccc(-c3c(-c4ccncn4)nn4c3C(=O)N(CCN)CC4)cc2)cc1 [Compound 165]	> 10000	200	154	631	6.7				6.5
398	CC(C)c1ccc(COc2ccc(-c3c(-c4ccncc4)nn4c3C(=O)N(C)CC4)cc2)cc1 [Compound 48]	> 10000	31.6	155	63.1	7.1				
	O=C1NC2(CC2)Cn2nc(-c3ccncc3)c(-c3ccc(OCc4ccc(C5CC5)cc4)cc3)c21 [Compound 5]		25.1	239		7.6	> 10000	316	50.1	7.5
100	CC(C)c1ccc(COc2ccc(-c3c(-c4ccncn4)nn4c3C(=O)N(C)CC4)cc2)cc1 [Compound 214]	> 10000	31.6	160	31.6	7.4				7.3
	CC(C)c1ccc(COc2ccc(-c3c(-c4ccncc4)nn4c3C(=O)NCC4)nc2)cc1 [Compound 12]		316	84		6.5	> 10000	794	501	6.7
2000	O=C1NCCCn2nc(-c3ccncc3)c(-c3ccc(OCc4ccc(C5CC5)cc4)cc3)c21 [Compound 228]	> 10000	398	235	501	6.3				
100	CC(C)c1ccc(COc2ccc(-c3c(-c4ccncn4)nn4c3C(=O)N(C(C)C)CC4)cc2)cc1 [Compound 160]	> 10000	39.8	166	31.6	7.3				7.3
	O=C1NCCn2nc(-c3ccncc3)c(-c3ccc(OCc4ccc(C(F)(F)F)cc4)cc3)c21 [Compound 119]		200	280		7.2	> 10000	398	316	6.9
